Reference: patent US10688200B2, “Urea-based prostate specific membrane antigen (PSMA) inhibitors for imaging and therapy” (Five Eleven Pharma Inc., priority 2015, dated 2020)

Assays:
[1] = molecular target: T1, PSMA (Homo sapiens, UniProt Q04609); assay: In vitro competitive binding assay to determine IC50 to PSMA; conditions: LNCaP cells, [125I]MIP-1095 radioligand, 37° C. 1 h, mean±SD (n=4); read-out: PSMA binding affinities of cold ligands, IC50
T1 construct: 100 μL of freshly harvested PSMA cells; endogenous in cells; host or cells: 'PSMA cells' in the method
T1 sequence (Q04609 whole entry): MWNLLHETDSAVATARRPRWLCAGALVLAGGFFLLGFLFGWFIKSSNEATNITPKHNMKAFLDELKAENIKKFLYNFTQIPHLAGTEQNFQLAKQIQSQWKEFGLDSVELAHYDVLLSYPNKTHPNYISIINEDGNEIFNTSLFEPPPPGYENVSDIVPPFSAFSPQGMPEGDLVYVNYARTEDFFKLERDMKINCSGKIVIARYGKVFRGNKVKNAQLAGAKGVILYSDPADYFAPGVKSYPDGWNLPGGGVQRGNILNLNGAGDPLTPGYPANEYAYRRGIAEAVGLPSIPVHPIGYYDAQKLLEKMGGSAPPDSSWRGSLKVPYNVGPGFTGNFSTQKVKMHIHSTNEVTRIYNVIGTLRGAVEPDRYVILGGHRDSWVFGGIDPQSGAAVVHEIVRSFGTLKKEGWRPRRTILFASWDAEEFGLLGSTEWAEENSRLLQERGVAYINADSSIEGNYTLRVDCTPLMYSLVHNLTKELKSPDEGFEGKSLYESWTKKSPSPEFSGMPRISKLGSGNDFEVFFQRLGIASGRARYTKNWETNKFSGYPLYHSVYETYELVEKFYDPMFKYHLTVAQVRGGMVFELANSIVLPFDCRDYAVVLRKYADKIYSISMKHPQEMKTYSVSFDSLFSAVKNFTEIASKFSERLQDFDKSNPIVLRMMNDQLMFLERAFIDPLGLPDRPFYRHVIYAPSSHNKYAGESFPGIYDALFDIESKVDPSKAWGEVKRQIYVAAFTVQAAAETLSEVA
Method: In Vitro Competitive Binding Assay to Determine IC50 to PSMA
In order to determine the binding affinity, in vitro competitive binding assays were performed. The LNCaP cells were incubated with 150,000 cpm of [^125I]MIP-1095 in the presence of 10 different concentrations of competing drugs. After incubation at 37° C. for 1 h, the bound and free radioactivity were separated by vacuum filtration through GF/B filter paper using a Brandel M-24R cell harvester followed by washing twice. Non-specific binding was defined with 10 μM PMPA. The cell bound radioactivity was measured with a gamma counter, 2470 Wizard^2 (Perkin-Elmer, IL). The IC50 values were calculated by fitting the data using a nonlinear regression algorithm (GraphPad Software).
The PSMA binding affinities were determined in a competitive binding assay using LNCaP human prostate carcinoma cells and the known high affinity PSMA ligand, [^125I]MIP-1095 as the radioligand. Data are expressed as mean±SD (n=4).

[2] = molecular target: T1, PSMA; assay: In vitro binding signals of 68Ga labeled ligands in LNCaP tumor homogenates; conditions: Ga-68 radiolabeled ligands; for Total binding (TB): 37° C. 60 min; for Nonspecific binding (NSB): with 1a (PSMA11) 10 μM
[3] = test system: LNCaP tumor bearing nude mice; assay: Biodistribution of [68Ga]labeled ligand in PSMA positive tumor bearing nude mice; type: in vivo, mouse; conditions: 1 h post-injection, i.v., n = 3
Method: In a dish contained 5×10^6 cells of LNCaP in 50% Matrigel (Becton Dickinson, Heidelberg, Germany) were subcutaneously inoculated into the left shoulder of male 5- to 6-week-old CD-1 nu/nu mice (Charles River Laboratories). The tumors were allowed to grow for 8 weeks until approximately 0.5 cm^3 in size.
The ^68Ga-radiolabeled compounds were injected via tail vein (25 μCi per mouse; 0.1-0.2 nmol). At 1 h after injection, the animals were sacrificed. Organs of interest were dissected and weighed. The radioactivity was measured with a gamma counter and calculated as % ID/g.

[4] = test system: PSMA-expressing LNCaP cells; assay: Cell binding and internalization; type: cell-based, human; conditions: 37° C.
Method: The cellular uptake and internalization kinetics of the [^68Ga]1a, [^68Ga]5a and [^68Ga]5b were determined using PSMA-expressing LNCaP cells. Furthermore, to be able to discriminate between total cellular activity (sum of membrane-associated and internalized activity) and internalized activity, all incubations were followed by a washing step with mild acid at 4° C. to remove specifically cell-surface bound radioligand by displacement.
LNCaP cells (in 6-well plates in triplicates) were incubated in RPMI-1640 medium with [^68Ga]1a, [^68Ga]5a or [^68Ga]5b for 0-2 h at 37° C. At the indicated time, the medium was removed and the cells were washed twice and then incubated with a mild acid buffer (50 mM glycine, 150 mM NaCl, pH 3.0) at 4° C. for 5 min. The supernatant (containing cell surface-bound radioactivity) was pooled and the cell pellet (containing internalized radioactivity) was collected with filter paper and then radioactivity in supernatant and cell pellet was counted on a gamma counter.
LNCaP cells were incubated with [^68Ga]1a, [^68Ga]5a and [^68Ga]5b for up to 2 h at 37° C. to determine whether the compound is internalized by endocytosis. The cells were then washed with a mild acid buffer to remove extracellularly bound compound.
Non specific binding (NSB) was evaluated by blocking with 20 μM PMPA. Specificity of cell uptake (SB) was calculated by subtracting the respective signals resulting from PMPA blocking. Values are expressed as % of applied radioactivity bound to 10^6 cells.

[5] = Biodistribution of radiotracers in normal mice; type: in vivo, mouse; conditions: normal male mice
Method: Normal CD-1 male mice were injected via the tail vein with 35 μCi of [^68Ga] radiotracers (0.2 nmole of ligand). […] All organs were removed and blood was also collected. Each organ was weighed, and the tissue radioactivity was measured with an automated gamma counter (Wizard, Perkin Elmer). The % ID/g was calculated by comparison with samples of a standard dilution of the initial dose. All measurements were corrected for decay.

## O=C(O)CCc1ccc(O)c(CN(CCN(CC(=O)O)Cc2cc(CCC(=O)NCCCCCC(=O)NCCCC[C@H](NC(=O)N[C@@H](CCC(=O)O)C(=O)O)C(=O)O)ccc2O)CC(=O)O)c1 [Compound 1a, Glu-NH—CO—NH-Lys(Ahx)-HBED-CC, reference compound]
[1]
  IC50: 16.6 ± 2.4 nM
[2]
  Specific binding (SB) SB = TB − NSB: 12.3
  Total binding (TB): 13.5
  Nonspecific binding (NSB): 1.2

## O=C(O)CC[C@H](NC(=O)N[C@@H](CCCCNC(=O)CCCCCNC(=O)CCc1ccc(O)c(CN(CCN(CC(=O)O)Cc2cc(CCC(=O)NCCNC(=O)CN3CCN(CC(=O)O)CCN(CC(=O)O)CCN(CC(=O)O)CC3)ccc2O)CC(=O)O)c1)C(=O)O)C(=O)O [Compound 1g, (3S,7S)-22-(3-(((carboxymethyl)(2-((carboxymethyl)(2-hydroxy-5-(3-oxo-3-((2-(2-(4,7,10-tris(carboxymethyl)-1,4,7,10-tetraazacyclododecan-1-yl)acetamido)ethyl)amino)propyl)benzyl)amino)ethyl)amino)methyl)-4-hydroxyphenyl)-5,13,20-trioxo-4,6,12,19-tetraazadocosane-1,3,7-tricarboxylic acid]
[1]
  IC50: 70.2 ± 29.1 nM
[2]
  Specific binding (SB) SB = TB − NSB: 9.0
  Total binding (TB): 10.5
  Nonspecific binding (NSB): 1.5

## O=C(O)CC[C@H](NC(=O)N[C@@H](CCCCNC(=O)[C@H](Cc1ccccc1)NC(=O)COc1ccc(C[C@H](NC(=O)CNC(=O)c2cccc(I)c2)C(=O)O)cc1)C(=O)O)C(=O)O [Compound 5c, (4S,11S,15S)-4-Benzyl-1-(4-((S)-2-carboxy-2-(2-(3-iodobenzamido)acetamido)ethyl)phenoxy)-2,5,13-trioxo-3,6,12,14-tetraazaheptadecane-11,15,17-tricarboxylic acid]
[1]
  IC50: 5 ± 1.9 nM

## C[C@H](NC(=O)CCc1ccc(O)c(CN(CCN(CC(=O)O)Cc2cc(CCC(=O)NCCCCCC(=O)NCCCC[C@H](NC(=O)N[C@@H](CCC(=O)O)C(=O)O)C(=O)O)ccc2O)CC(=O)O)c1)C(=O)O [Compound 1d, (3S,7S)-22-(3-(((2-((5-(3-(((S)-1-Carboxyethyl)amino)-3-oxopropyl)-2-hydroxybenzyl)(carboxymethyl)amino)ethyl)(carboxymethyl)amino)methyl)-4-hydroxyphenyl)-5,13,20-trioxo-4,6,12,19-tetraazadocosane-1,3,7-tricarboxylic acid]
[1]
  IC50: 26.8 ± 6.3 nM
[2]
  Specific binding (SB) SB = TB − NSB: 11.2
  Total binding (TB): 12.6
  Nonspecific binding (NSB): 1.4

## O=C(O)CC[C@H](NC(=O)N[C@@H](CCCCNC(=O)[C@H](Cc1ccccc1)NC(=O)COc1ccc(C[C@H](NC(=O)CNC(=O)C[N+]23CC[N+]45CC[N+]6(CC(=O)O)CC[N+]7(CC2)CC(=O)[O][68Ga-3]6347[O]C(=O)C5)C(=O)O)cc1)C(=O)O)C(=O)O (stereo partly shown) [[^68Ga]5a]
[3]
  Organ distribution: Blood: 0.36 ± 0.05 % dose/g
  Organ distribution: Bone: 0.11 ± 0.04 % dose/g
  Organ distribution: Brain: 0.03 ± 0.01 % dose/g
  Organ distribution: Heart: 0.19 ± 0.04 % dose/g
  Organ distribution: Liver: 0.36 ± 0.10 % dose/g
  Organ distribution: Lung: 0.46 ± 0.13 % dose/g
  Organ distribution: Muscle: 0.21 ± 0.15 % dose/g
  Organ distribution: Pancreas: 0.20 ± 0.05 % dose/g
  Organ distribution: Skin: 0.33 ± 0.17 % dose/g
  Organ distribution: Spleen: 0.70 ± 0.38 % dose/g
[4]; 5 min
  Cell surface binding activity: 1.67 ± 0.24 % ID/10^6 cells
  Internalized activity: 0.21 ± 0.04 % ID/10^6 cells
[4]; 15 min
  Cell surface binding activity: 1.92 ± 0.24 % ID/10^6 cells
  Internalized activity: 1.14 ± 0.21 % ID/10^6 cells
[4]; 30 min
  Cell surface binding activity: 1.96 ± 0.27 % ID/10^6 cells
  Internalized activity: 2.55 ± 0.42 % ID/10^6 cells
[4]; 60 min
  Cell surface binding activity: 1.89 ± 0.13 % ID/10^6 cells
  Internalized activity: 3.70 ± 0.44 % ID/10^6 cells
[4]; 90 min
  Cell surface binding activity: 2.33 ± 0.01 % ID/10^6 cells
  Internalized activity: 5.40 ± 0.13 % ID/10^6 cells
[4]; 120 min
  Cell surface binding activity: 2.03 ± 0.23 % ID/10^6 cells
  Internalized activity: 5.43 ± 1.20 % ID/10^6 cells

## O=C(O)CCc1ccc2c(c1)C[N+]13CC[N+]45CC(=O)[O][Ga-3]14([O]C(=O)C3)([O]2)[O]c1ccc(CCC(=O)NCC(=O)N[C@@H](Cc2ccc(OCC(=O)N[C@@H](Cc3ccccc3)C(=O)NCCCC[C@H](NC(=O)N[C@@H](CCC(=O)O)C(=O)O)C(=O)O)cc2)C(=O)O)cc1C5 (stereo partly shown) [[^natGa]5b]
[1]
  IC50: 16.5 ± 3.1 nM

## O=C(O)CCc1ccc(O)c(CN(CCN(CC(=O)O)Cc2cc(CCC(=O)NCC(=O)N[C@@H](Cc3ccc(OCC(=O)N[C@@H](Cc4ccccc4)C(=O)NCCCC[C@H](NC(=O)N[C@@H](CCC(=O)O)C(=O)O)C(=O)O)cc3)C(=O)O)ccc2O)CC(=O)O)c1 [Compound 5b, (4S,11S,15S)-4-Benzyl-1-(4-((S)-2-carboxy-2-(2-(3-(3-(((2-((5-(2-carboxyethyl)-2-hydroxybenzyl)(carboxymethyl)amino)ethyl)(carboxymethyl)amino)methyl)-4-hydroxyphenyl)propanamido)acetamido)ethyl)phenoxy)-2,5,13-trioxo-3,6,12,14-tetraazaheptadecane-11,15,17-tricarboxylic acid.]
[2]
  Specific binding (SB) SB = TB − NSB: 10.54
  Total binding (TB): 10.73
  Nonspecific binding (NSB): 0.18

## O=C(O)CC[C@H](NC(=O)N[C@@H](CCCCNC(=O)Nc1ccc(I)cc1)C(=O)O)C(=O)O [MIP-1095, reference compound]
[1]
  IC50: 4.6 ± 1.4 nM

## O=C(O)CC[C@H](NC(=O)N[C@@H](CCCCNC(=O)[C@H](Cc1ccccc1)NC(=O)COc1ccc(C[C@H](NC(=O)CNC(=O)c2ccc(F)nc2)C(=O)O)cc1)C(=O)O)C(=O)O [Compound 5e]
[1]
  IC50: 6 ± 1.8 nM

## O=C(O)CC[C@H](NC(=O)N[C@@H](CCCCNC(=O)[C@H](Cc1ccccc1)NC(=O)COc1ccc(C[C@H](NC(=O)CNC(=O)c2ccccc2I)C(=O)O)cc1)C(=O)O)C(=O)O [Compound 5d, (4S,11S,15S)-4-Benzyl-1-(4-((S)-2-carboxy-2-(2-(2-iodobenzamido)acetamido)ethyl)phenoxy)-2,5,13-trioxo-3,6,12,14-tetraazaheptadecane-11,15,17-tricarboxylic acid]
[1]
  IC50: 5.3 ± 2.2 nM

## C[C@H](NC(=O)CCc1ccc2c(c1)C[N+]13CC[N+]45CC(=O)[O][68Ga-3]41([O]C(=O)C3)([O]c1ccc(CCC(=O)NCCCCCC(=O)NCCCC[C@H](NC(=O)N[C@@H](CCC(=O)O)C(=O)O)C(=O)O)cc1C5)[O]2)C(=O)O (stereo partly shown) [[^68Ga]1d]
[5]; 2 min
  Biodistribution: Blood: 7.44 ± 1.40 % dose/g
  Biodistribution: Bone: 2.01 ± 0.24 % dose/g
  Biodistribution: Brain: 0.23 ± 0.04 % dose/g
  Biodistribution: Heart: 3.18 ± 0.48 % dose/g
  Biodistribution: Kidney: 50.3 ± 8.32 % dose/g
  Biodistribution: Liver: 2.36 ± 0.27 % dose/g
  Biodistribution: Lung: 4.96 ± 0.67 % dose/g
  Biodistribution: Muscle: 1.96 ± 0.08 % dose/g
  Biodistribution: Pancreas: 1.83 ± 0.40 % dose/g
  Biodistribution: Skin: 2.30 ± 0.20 % dose/g
  Biodistribution: Spleen: 3.40 ± 0.91 % dose/g
[5]; 60 min
  Biodistribution: Blood: 0.44 ± 0.06 % dose/g
  Biodistribution: Bone: 0.70 ± 0.09 % dose/g
  Biodistribution: Brain: 0.03 ± 0.00 % dose/g
  Biodistribution: Heart: 0.42 ± 0.01 % dose/g
  Biodistribution: Kidney: 141.7 ± 0.82 % dose/g
  Biodistribution: Liver: 0.68 ± 0.11 % dose/g
  Biodistribution: Lung: 1.10 ± 0.13 % dose/g
  Biodistribution: Muscle: 0.50 ± 0.07 % dose/g
  Biodistribution: Pancreas: 1.02 ± 0.18 % dose/g
  Biodistribution: Skin: 0.81 ± 0.11 % dose/g
  Biodistribution: Spleen: 5.11 ± 0.97 % dose/g
